Calls of active or inactive are those of the source. The calls are words filed in the database; no cut-off is given here.
Assays:
RS4-11 [1] = assay: Antiproliferative activity against human RS4;11 cells harbouring p53 wild type assessed as inhibition of cell growth measured after 4 days by WST-8 assay; type: functional, cell-based; conditions: RS4-11, 96 h
RS4-11 [2] = assay: Antiproliferative activity against human RS4;11 cells harbouring p53 mutant assessed as inhibition of cell growth measured after 4 days by WST-8 assay; type: functional, cell-based; conditions: RS4-11, 96 h
RS4-11 [3] = assay: Antitumor activity against human RS4;11 cells xenografted in SCID mouse model assessed as tumor regression at 50 mg/kg, iv qd administered every other for 2 weeks by caliper method relative to control; type: functional
RS4-11 [4] = assay: Antiproliferative activity against human RS4;11 cells assessed as inhibition of cell growth measured after 4 days by WST-8 assay; type: functional, cell-based; conditions: RS4-11, 96 h
MV4-11 = assay: Antiproliferative activity against human MV4-11 cells assessed as inhibition of cell growth measured after 4 days by WST-8 assay; type: functional, cell-based; conditions: MV4-11, 96 h
RS4-11 [5] = assay: Antitumor activity against human RS4;11 cells xenografted in female NOD-SCID mouse model assessed as tumor regression at 50 mg/kg, iv administered every other day for 2 weeks by vernier method relative to control; type: functional
[6] = Toxicity in female NOD-SCID mouse assessed as effect on body weight at 50 mg/kg, iv qd; type: organism-based; conditions: in vivo
[7] = Toxicity in SCID mouse at 50 mg/kg, iv; type: organism-based; conditions: in vivo
RS4-11 [8] = assay: Upregulation of p53 level in human RS4;11 cells harbouring wild type p53 at 10 to 300 nM measured after 2 hrs by Western blot analysis; type: functional, cell-based; conditions: dose 10-300 nM
RS4-11 [9] = assay: Downregulation of MDM2 level in human RS4;11 cells harbouring wild type p53 at 10 to 300 nM measured after 2 hrs by Western blot analysis; type: functional, cell-based; conditions: dose 10-300 nM

For O=C1CCC(N2Cc3c(C#CCCCNC(=O)c4ccc(NC(=O)[C@@H]5NC6(CCCCC6)[C@@]6(C(=O)Nc7cc(Cl)ccc76)[C@H]5c5cccc(Cl)c5F)cc4)cccc3C2=O)C(=O)N1 (some centres not stated), the IC50 (RS4-11 [1]) was 4 nM, the IC50 (RS4-11 [2]) was greater than 1000 nM and the Activity (RS4-11 [3]) was 100%. For the same compound, the IC50 (RS4-11 [4]) was 2 nM, the IC50 (MV4-11) was 7 nM and the Activity (RS4-11 [5]) was 100%. The Activity [6] was “Non-toxic”.

With O=C1CCC(N2Cc3c(NCc4cn(CCCNC(=O)c5ccc(NC(=O)[C@@H]6NC7(CCCCC7)[C@@]7(C(=O)Nc8cc(Cl)ccc87)[C@H]6c6cccc(Cl)c6F)cc5)cn4)cccc3C2=O)C(=O)N1 (some centres not stated) the IC50 (RS4-11 [1]) was 6 nM, the IC50 (RS4-11 [2]) was 180 nM and the Activity [7] was “Toxic”.

With O=C(O)c1ccc(NC(=O)[C@@H]2NC3(CCCCC3)[C@@]3(C(=O)Nc4cc(Cl)ccc43)[C@H]2c2cccc(Cl)c2F)cc1 the Activity (RS4-11 [8]) was “Active” and the Activity (RS4-11 [9]) was “inactive”.

Source: ChEMBL document CHEMBL6083271 (J Med Chem, 2024)
